Results as given in US20220354811A1, “METHODS AND COMPOSITIONS FOR MODULATING MACROPHAGES POLARIZATION” (INSERM (INSTITUT NATIONAL DE LA SANTÉ ET DE LA RECHERCHE …, priority 2019, published 2022).

Key:
[1] = test system: primary human monocytes; experiment: Cell death in CSF-1-treated differentiating monocytes (AnnexinV/DAPI flow cytometry); format: cell-based
Source text: FIG. 1. […] (A) Macrophagic differentiation of monocytes from 3 different healthy donors was examined by 3-color flow cytometric analysis. The results are expressed as percentage of CD71/CD163 or CD16/CD163 double positive cells and represent the mean±SD of 3 independent experiments performed in duplicate. (B) Cell death from 3 different healthy donors was examined by flow cytometry analysis. The results are expressed as percentage of AnnexinV/DAPI double positive cells and represent the mean±SD of 3 independent experiments performed in duplicate. n.s. denotes not statistically significant according to a paired student t test. *P<0.05, **P<0.01, ***P<0.001 according to a paired student t test (versus d2).
To analyze the macrophagic differentiation of monocytes, the cells were washed with ice-cold phosphate buffered saline (PBS, Life Technologies, 14190169), incubated at 4° C. for 10 min in PBS/bovine serum albumin (BSA 0.5%, Dutscher, 871002) with anti-CD16, anti-CD71 and anti-CD163 or isotype controls (Miltenyi and BD Biosciences, catalog numbers were 130-113-396, 130-097-628 and 551374). Finally, the cells were washed and fixed in 2% paraformaldehyde (EMS, 15710). To perform macrophage polarization, purified monocytes were plated at 0.3×10^6 per mL in RPMI 1640 medium with glutamax-I supplemented with 10% (vol/vol) fetal bovine serum plus CSF-1 for 5+2 days to differentiate into M0 macrophages. 20 ng/mL IL-4 (Miltenyi, 130-094-117) was added after 5 days of differentiation for two days to polarize into M2-macrophages. To analyze the macrophage polarization, cells were detached using PBS/EDTA/BSA, washed with PBS, and incubated at 4° C. for 10 min in PBS/bovine serum albumin with anti-CD200R (Biolegend, 329308), anti-CD206 (Miltenyi, 130-100-034) and anti-CD163 (Miltenyi, 130-097-628) or isotype controls. Finally, the cells were washed and fixed in 2% paraformaldehyde (EMS, 15710). Fluorescence was measured with a MACSQuant® Analyzer (Miltenyi, Paris, France). To analyze the cell death, cells were washed with ice-cold PBS and incubated at 4° C. for 15 min in a specific buffer (10 mM HEPES, 150 mM NaCl, 5 mM KCl, 1 mM MgCl2, 1 mM CaCl2) with AnnexinV-FITC (Miltenyi, 130-097-928) and DAPI (Sigma-Aldrich, D9542). Fluorescence was measured with a MACSQuant® Analyzer (Miltenyi, Paris, France). To analyze the ability of macrophages to phagocyte bacteria, we used Vybrant® Phagocytosis Assay Kit according manufacture's instruction (ThermoFisher, V-6694). […] Fluorescence, that indicate the internalization of particles, was measured with a MACSQuant® Analyzers (Miltenyi, France). Trypan blue solution was used to quench the fluorescence from particles that were not internalized. […]

[2] = molecular target: T1, caspase 3 (Homo sapiens, UniProt P42574); experiment: Caspase-3 activity in cellulo in CSF-1-differentiating monocytes (flow cytometry, DEVD); format: cell-based; parameters: endogenous in cells; host or cells: primary human peripheral blood monocytes (CD14-selected, healthy donors); conditions: identical conditions: Emricasan single dose, Q-VD-OPh 100 μM 2 times
T1 sequence (P42574 29-175 limits assumed): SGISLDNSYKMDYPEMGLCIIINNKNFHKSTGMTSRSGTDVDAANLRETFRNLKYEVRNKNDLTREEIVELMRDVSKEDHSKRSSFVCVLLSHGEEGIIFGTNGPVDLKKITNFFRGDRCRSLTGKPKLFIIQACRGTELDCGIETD
T1 sequence (P42574 176-277 limits assumed): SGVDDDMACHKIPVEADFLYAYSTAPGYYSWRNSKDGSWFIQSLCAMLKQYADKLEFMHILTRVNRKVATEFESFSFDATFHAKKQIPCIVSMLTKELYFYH
Source text: FIG. 5. […] Caspases activities from 3 different healthy donors was examined by flow cytometry analysis. The results are expressed as percentage of IETD or DEVD positive cells and represent the mean±SD of 3 independent experiments performed in duplicate. n.s. denotes not statistically significant according to a paired student t test. *P<0.05, **P<0.01, ***P<0.001 according to a paired student t test (versus d2). Asterisks indicate cleavage fragments. Each panel is representative of at least 3 independent experiments.
To analyze the macrophagic differentiation of monocytes, the cells were washed with ice-cold phosphate buffered saline (PBS, Life Technologies, 14190169), incubated at 4° C. for 10 min in PBS/bovine serum albumin (BSA 0.5%, Dutscher, 871002) with anti-CD16, anti-CD71 and anti-CD163 or isotype controls (Miltenyi and BD Biosciences, catalog numbers were 130-113-396, 130-097-628 and 551374). […] Fluorescence was measured with a MACSQuant® Analyzer (Miltenyi, Paris, France). […] Fluorescence was measured with a MACSQuant® Analyzer (Miltenyi, Paris, France). […] Fluorescence, that indicate the internalization of particles, was measured with a MACSQuant® Analyzers (Miltenyi, France). Trypan blue solution was used to quench the fluorescence from particles that were not internalized. […]
After 2 days, caspase-8 activity was assessed by flow cytometry using Ac-IETD-FITC as substrate (data not shown).

| Structure (SMILES) | apoptosis induction in undifferentiated monocytes [1] | DAPI staining ([1]; higher concentrations (3 μM)) | toxicity for primary human monocytes ([1]; low concentrations (up to 2 μM)) | Annexin V staining ([1]; low concentrations, CSF-1, 48 h) | effect on caspase-3 activity in cellulo [2] |
| --- | --- | --- | --- | --- | --- |
| C[C@H](NC(=O)C(=O)Nc1ccccc1C(C)(C)C)C(=O)N[C@@H](CC(=O)O)C(=O)COc1c(F)c(F)cc(F)c1F [Emricasan, (S)-3-((S)-2-(2-((2-(tert-Butyl)phenyl)amino)-2-oxoacetamido)propanamido)-4-oxo-5-(2,3,5,6-tetrafluorophenoxy)pentanoic acid] | did not induce apoptosis | slightly increased DAPI staining | not toxic | failed to induced significant loss of Annexin V staining | potent inhibition |
| CC(C)[C@H](NC(=O)c1ccc2ccccc2n1)C(=O)N[C@@H](CC(=O)O)C(=O)COc1c(F)cccc1F [Q-VD-OPh] | – | – | – | – | potent inhibition |
